Assay results taken from ChEMBL document CHEMBL1201862, “PubChem BioAssay data set” (2004).
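Growth conditions: 96-well plates. Treatment: test compound, 48 hours, 5 concentrations. Analysis: linear interpolation between bracketing concentrations; unreached endpoints set to highest concentration. At the GI50, growth is halved.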 The source made the active and inactive calls. Cut-off read from the data, not from the text of the source: active = GI50 up to about 1.1 µM and inactive = higher.

Experiments:
Assay in all cases: growth of human tumour cells (NCI), 48 h
HOP-62 = tested on: HOP-62
KM12 = tested on: KM12
LXFL 529 = tested on: LXFL 529
HL-60 = tested on: HL-60
SN12C = tested on: SN12C
UACC-62 = tested on: UACC-62
SNB-19 = tested on: SNB-19
LOX IMVI = tested on: LOX IMVI
NCI-H460 = tested on: NCI-H460
UO-31 = tested on: UO-31
TK-10 = tested on: TK-10
OVCAR-8 = tested on: OVCAR-8
OVCAR-3 = tested on: OVCAR-3
786-0 = tested on: 786-0
SF-268 = tested on: SF-268
ACHN = tested on: ACHN
DMS-114 = tested on: DMS-114
NCI-H226 = tested on: NCI-H226
A498 = tested on: A498
HCC 2998 = tested on: HCC 2998
SK-OV-3 = tested on: SK-OV-3
K562 = tested on: K562
COLO 205 = tested on: COLO 205
NCI-H23 = tested on: NCI-H23
DMS-273 = tested on: DMS-273
SW-620 = tested on: SW-620
HOP-18 = tested on: HOP-18
UACC-257 = tested on: UACC-257
SF-295 = tested on: SF-295
SNB-75 = tested on: SNB-75
M19-MEL = tested on: M19-MEL
SK-MEL-5 = tested on: SK-MEL-5
SK-MEL-28 = tested on: SK-MEL-28
NCI-H522 = tested on: NCI-H522
OVCAR-5 = tested on: OVCAR-5
EKVX = tested on: EKVX
RXF 631 = tested on: RXF 631
OVCAR-4 = tested on: OVCAR-4
DLD-1 = tested on: DLD-1
HCT-116 = tested on: HCT-116
A549 = tested on: A549
U-251 = tested on: U-251
HCT-15 = tested on: HCT-15
Malme-3M = tested on: Malme-3M
CAKI-1 = tested on: CAKI-1
RXF 393 = tested on: RXF 393
SK-MEL-2 = tested on: SK-MEL-2
IGROV-1 = tested on: IGROV-1
KM-20L2 = tested on: KM-20L2
CCRF-CEM = tested on: CCRF-CEM
MOLT-4 = tested on: MOLT-4
HT-29 = tested on: HT-29
SR = tested on: SR
M14 = tested on: M14
XF498 = tested on: XF498
RPMI-8226 = tested on: RPMI-8226
SF-539 = tested on: SF-539
SNB-78 = tested on: SNB-78

Structure (SMILES): COc1ccc2cccc(C(=O)c3ccc(C)c4c3CCC4)c2c1
- GI50 (HOP-62): 24.9 µM (inactive)
- GI50 (KM12): 26.1 µM (inactive)
- GI50 (LXFL 529): 29.6 µM (inactive)
- GI50 (HL-60): 14.6 µM (inactive)
- GI50 (SN12C): 71.9 µM (inactive)
- GI50 (UACC-62): 25.4 µM (inactive)
- GI50 (SNB-19): > 100 µM (inactive)
- GI50 (LOX IMVI): 19.5 µM (inactive)
- GI50 (NCI-H460): 20.3 µM (inactive)
- GI50 (UO-31): 30.2 µM (inactive)
- GI50 (TK-10): 32.3 µM (inactive)
- GI50 (OVCAR-8): 43.2 µM (inactive)
- GI50 (OVCAR-3): 35.2 µM (inactive)
- GI50 (786-0): 24.8 µM (inactive)
- GI50 (SF-268): > 100 µM (inactive)
- GI50 (ACHN): 56 µM (inactive)
- GI50 (DMS-114): 32.4 µM (inactive)
- GI50 (NCI-H226): 52.4 µM (inactive)
- GI50 (A498): 34.1 µM (inactive)
- GI50 (HCC 2998): 19.6 µM (inactive)
- GI50 (SK-OV-3): 64.3 µM (inactive)
- GI50 (K562): 30.8 µM (inactive)
- GI50 (COLO 205): 29 µM (inactive)
- GI50 (NCI-H23): 34.1 µM (inactive)
- GI50 (DMS-273): 29.1 µM (inactive)
- GI50 (SW-620): 41.8 µM (inactive)
- GI50 (HOP-18): 33.3 µM (inactive)
- GI50 (UACC-257): 30.1 µM (inactive)
- GI50 (SF-295): 53.6 µM (inactive)
- GI50 (SNB-75): > 100 µM (inactive)
- GI50 (M19-MEL): 37.8 µM (inactive)
- GI50 (SK-MEL-5): 19.5 µM (inactive)
- GI50 (SK-MEL-28): > 100 µM (inactive)
- GI50 (NCI-H522): 22.5 µM (inactive)
- GI50 (OVCAR-5): 34.3 µM (inactive)
- GI50 (EKVX): 51.2 µM (inactive)
- GI50 (RXF 631): 23 µM (inactive)
- GI50 (OVCAR-4): 85.5 µM (inactive)
- GI50 (DLD-1): 21.5 µM (inactive)
- GI50 (HCT-116): 37.7 µM (inactive)
- GI50 (A549): 49.9 µM (inactive)
- GI50 (U-251): 53.7 µM (inactive)
- GI50 (HCT-15): 19 µM
- GI50 (Malme-3M): 29.2 µM (inactive)
- GI50 (CAKI-1): 31.7 µM (inactive)
- GI50 (RXF 393): 41.4 µM (inactive)
- GI50 (SK-MEL-2): 34.6 µM (inactive)
- GI50 (IGROV-1): 24.6 µM (inactive)
- GI50 (KM-20L2): 35.9 µM (inactive)
- GI50 (CCRF-CEM): 26.2 µM (inactive)
- GI50 (MOLT-4): 27.6 µM (inactive)
- GI50 (HT-29): 33 µM (inactive)
- GI50 (SR): 23.6 µM (inactive)
- GI50 (M14): 21.4 µM (inactive)

Structure (SMILES): CN1C(=O)CCC2[C@@H]3CC=C4C[C@@H](O)CC[C@]4(C)C3CC[C@@]21C (some centres undefined)
- GI50 (HOP-62): 45.9 µM (inactive)
- GI50 (KM12): 59.8 µM (inactive)
- GI50 (LXFL 529): 29.1 µM (inactive)
- GI50 (HL-60): 11.5 µM (inactive)
- GI50 (UACC-62): 62.4 µM (inactive)
- GI50 (NCI-H460): 45 µM (inactive)
- GI50 (UO-31): 33.8 µM (inactive)
- GI50 (TK-10): > 100 µM (inactive)
- GI50 (OVCAR-8): 64.9 µM (inactive)
- GI50 (OVCAR-3): 49.5 µM (inactive)
- GI50 (786-0): 94.4 µM (inactive)
- GI50 (XF498): 45.7 µM (inactive)
- GI50 (ACHN): 42.4 µM (inactive)
- GI50 (DMS-114): 16.4 µM (inactive)
- GI50 (NCI-H226): > 100 µM (inactive)
- GI50 (A498): > 100 µM (inactive)
- GI50 (HCC 2998): > 100 µM (inactive)
- GI50 (SK-OV-3): > 100 µM (inactive)
- GI50 (K562): 21.3 µM (inactive)
- GI50 (NCI-H23): 25.4 µM (inactive)
- GI50 (DMS-273): 64.1 µM (inactive)
- GI50 (SW-620): > 100 µM (inactive)
- GI50 (UACC-257): 20.3 µM (inactive)
- GI50 (SF-295): 27.2 µM (inactive)
- GI50 (SNB-75): > 100 µM (inactive)
- GI50 (M19-MEL): 50.6 µM (inactive)
- GI50 (SK-MEL-5): 13.5 µM (inactive)
- GI50 (SK-MEL-28): > 100 µM (inactive)
- GI50 (OVCAR-5): 97.7 µM (inactive)
- GI50 (EKVX): 67.5 µM (inactive)
- GI50 (RXF 631): 28 µM (inactive)
- GI50 (OVCAR-4): 33.4 µM (inactive)
- GI50 (DLD-1): > 100 µM (inactive)
- GI50 (HCT-116): 33.5 µM (inactive)
- GI50 (A549): 46.1 µM (inactive)
- GI50 (U-251): > 100 µM (inactive)
- GI50 (RPMI-8226): 20.8 µM (inactive)
- GI50 (SF-539): 45.9 µM (inactive)
- GI50 (HCT-15): 71.6 µM
- GI50 (Malme-3M): 82.4 µM (inactive)
- GI50 (CAKI-1): 50.2 µM (inactive)
- GI50 (RXF 393): 18.3 µM (inactive)
- GI50 (SK-MEL-2): > 100 µM (inactive)
- GI50 (SNB-78): > 100 µM (inactive)
- GI50 (IGROV-1): 96.2 µM (inactive)
- GI50 (KM-20L2): 53.5 µM (inactive)
- GI50 (CCRF-CEM): 36.1 µM (inactive)
- GI50 (MOLT-4): 18.5 µM (inactive)
- GI50 (HT-29): 36.6 µM (inactive)
- GI50 (M14): 83.6 µM (inactive)
